# Laboratory results reported in the SangsterLogP compilation.
# Assay: method code SF-AS, from DOI: 10.1002/qsar.19890080102
# Conditions: pH 1.5
row,SMILES,logD
1,NS(=O)(=O)c1cccc(Cl)c1,1.16
2,CC(C)c1cccc(S(N)(=O)=O)c1,1.66
3,NS(=O)(=O)c1cccc(S(N)(=O)=O)c1,-0.5
4,NS(=O)(=O)c1cccc(Br)c1,1.35
5,CCCCOc1cccc(S(N)(=O)=O)c1,2.06

# Now from value to compound:
row,logD,SMILES
1,1.71,CC(C)c1ccc(S(N)(=O)=O)cc1
2,1.34,NS(=O)(=O)c1ccc(Br)cc1
3,1.55,NS(=O)(=O)c1ccc(I)cc1
4,1.58,NS(=O)(=O)c1cccc(I)c1
5,2.24,NS(=O)(=O)c1ccc(-c2ccccc2)cc1
6,2.05,CCCCOc1ccc(S(N)(=O)=O)cc1
7,-0.4,CS(=O)(=O)Nc1ccc(S(N)(=O)=O)cc1

# Same assay, conditions: pH 5.5
row,logD,SMILES
1,-0.32,Nc1cccc(S(N)(=O)=O)c1
